Drawing on patent US10280164B2, “Pyrazolopyridone compounds and uses thereof” (Incyte Corporation, priority 2016, dated 2019), this text covers Ki for 16 compounds.

Each structure is given as a SMILES string. pKi: −log10 of the molar value.

The target in the assay is HPK1 (Homo sapiens (Human), UniProt Q92918). Kind of assay: HPK1 Kinase Binding Assay (LanthaScreen Eu-Anti GST antibody / tracer 222). The note with it: active HPK1 (SignalChem M23-11G), tracer 222, one hour incubation at 25° C. As for the experimental part: A stock solution of 1 mM test compound was prepared in DMSO. The compound plate was prepared by 3-fold and 11-point serial dilutions. 0.1 μL of the compound in DMSO was transferred from the compound plate to the white 384 well polystyrene plates. The assay buffer contained 50 mM HEPES, pH 7.5, 0.01% Tween-20, 5 mM MgCl2, 0.01% BSA, and 5 mM DTT. 5 μl of 4 nM active HPK1 (SignalChem M23-11G) prepared in the buffer was added to the plate. The enzyme concentration given was based on the given stock concentration reported by the vender. 5 μl of 18 nM tracer 222 (ThermoFisher PV6121) and 4 nM LanthaScreen Eu-Anti GST antibody (ThermoFisher PV5595) were added. After one hour incubation at 25° C., the plates were read on a PHERAstar FS plate reader (BMG Labtech). Ki values were determined.
Sequence of HPK1 (Q92918 1-346): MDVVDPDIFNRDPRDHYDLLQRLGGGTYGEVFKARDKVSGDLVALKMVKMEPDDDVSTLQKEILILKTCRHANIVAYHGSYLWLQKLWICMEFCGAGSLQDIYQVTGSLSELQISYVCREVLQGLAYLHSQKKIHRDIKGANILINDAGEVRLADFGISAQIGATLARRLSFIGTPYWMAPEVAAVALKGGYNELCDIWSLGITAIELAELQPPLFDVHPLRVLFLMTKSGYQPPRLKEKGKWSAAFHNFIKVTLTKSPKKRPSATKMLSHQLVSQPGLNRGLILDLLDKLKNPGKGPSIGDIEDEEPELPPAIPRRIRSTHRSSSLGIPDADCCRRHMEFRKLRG
Compound `CC(c1ccccc1)n1cc2c(-c3ccc(N4CCN(C)CC4)cc3)n[nH]c2cc1=O` (stereo not shown) [Example 14, 3-[4-(4-Methylpiperazin-1-yl)phenyl]-5-(1-phenylethyl)-1,5-dihydro-6H-pyrazolo[4,3-c]pyridin-6-one] gave a pKi not below 7.00.

As for `CC1OCCCC1n1cc2c(-c3ccc(N4CCN(C)CC4)cc3)n[nH]c2cc1=O` (stereo not shown) [Example 16, 3-[4-(4-Methylpiperazin-1-yl)phenyl]-5-(2-methyltetrahydro-2H-pyran-3-yl)-1,5-dihydro-6H-pyrazolo[4,3-c]pyridin-6-one], the pKi was 6.30 to 7.00.

With `CN1CCN(c2ccc(-c3n[nH]c4cc(=O)n(-c5ncccc5F)cc34)cc2)CC1` [Example 8, 5-(3-Fluoropyridin-2-yl)-3-[4-(4-methylpiperazin-1-yl)phenyl]-1,5-dihydro-6H-pyrazolo[4,3-c]pyridin-6-one], the pKi is not below 7.00.

Compound `CN1CCN(c2ccc(-c3n[nH]c4cc(=O)n(Cc5ccccc5)cc34)cc2)CC1` [Example 11, 5-Benzyl-3-[4-(4-methylpiperazin-1-yl)phenyl]-1,5-dihydro-6H-pyrazolo[4,3-c]pyridin-6-one] gave a pKi of 6.30 to 7.00.

In turn, `CN1CCN(c2ccc(-c3n[nH]c4cc(=O)n(-c5ccccc5)cc34)cc2)CC1` [Example 1, 3-[4-(4-Methylpiperazin-1-yl)phenyl]-5-phenyl-1,5-dihydro-6H-pyrazolo[4,3-c]pyridin-6-one] had a pKi of 6.30 to 7.00.

`CN1CCN(c2ccc(-c3n[nH]c4cc(=O)n(C5CCOC5)cc34)cc2)CC1` (stereo not shown) [Example 10, 3-[4-(4-Methylpiperazin-1-yl)phenyl]-5-(tetrahydrofuran-3-yl)-1,5-dihydro-6H-pyrazolo[4,3-c]pyridin-6-one] gave a pKi of 5.52 to 6.30.

As to `CN1CCN(c2ccc(-c3n[nH]c4cc(=O)n(-c5ccccc5F)cc34)cc2)CC1` [Example 2, 5-(2-Fluorophenyl)-3-[4-(4-methylpiperazin-1-yl)phenyl]-1,5-dihydro-6H-pyrazolo[4,3-c]pyridin-6-one], the pKi was not below 7.00.

In turn, `Cc1ccccc1-n1cc2c(-c3ccc(N4CCN(C)CC4)cc3)n[nH]c2cc1=O` [Example 3, 3-[4-(4-Methylpiperazin-1-yl)phenyl]-5-(o-tolyl)-1,5-dihydro-6H-pyrazolo[4,3-c]pyridin-6-one] showed a pKi not below 7.00.

`CN1CCN(c2ccc(-c3n[nH]c4cc(=O)n(C5CCCCC5)cc34)cc2)CC1` [Example 9, 5-Cyclohexyl-3-[4-(4-methylpiperazin-1-yl)phenyl]-1,5-dihydro-6H-pyrazolo[4,3-c]pyridin-6-one] had a pKi of 6.30 to 7.00.

Compound `CN1CCN(c2ccc(-c3n[nH]c4cc(=O)n(-c5cccc6c5CCNC6)cc34)cc2)CC1` [Example 6, 3-[4-(4-Methylpiperazin-1-yl)phenyl]-5-(1,2,3,4-tetrahydroisoquinolin-5-yl)-1,5-dihydro-6H-pyrazolo[4,3-c]pyridin-6-one] gave a pKi not below 7.00.

For the compound `CN1CCN(c2ccc(-c3n[nH]c4cc(=O)n(C5CCN(C)C5=O)cc34)cc2)CC1` (stereo not shown) [Example 15, 5-(1-Methyl-2-oxopyrrolidin-3-yl)-3-[4-(4-methylpiperazin-1-yl)phenyl]-1,5-dihydro-6H-pyrazolo[4,3-c]pyridin-6-one], the pKi was 5.52 to 6.30.

Consider `CN1CCN(c2ccc(-c3n[nH]c4cc(=O)n(-c5cccc6c5OCCO6)cc34)cc2)CC1` [Example 7, 5-(2,3-Dihydrobenzo[b][1,4]dioxin-5-yl)-3-[4-(4-methylpiperazin-1-yl)phenyl]-1,5-dihydro-6H-pyrazolo[4,3-c]pyridin-6-one], for which the pKi was not below 7.00.

For the compound `CC(c1ccccc1C(F)(F)F)n1cc2c(-c3ccc(N4CCN(C)CC4)cc3)n[nH]c2cc1=O` (stereo not shown) [Example 13, 3-[4-(4-Methylpiperazin-1-yl)phenyl]-5-{1-[2-(trifluoromethyl)phenyl]ethyl}-1,5-dihydro-6H-pyrazolo[4,3-c]pyridin-6-one], the pKi was not below 7.00.

As for `COc1ccccc1-n1cc2c(-c3ccc(N4CCN(C)CC4)cc3)n[nH]c2cc1=O` [Example 4, 5-(2-Methoxyphenyl)-3-[4-(4-methylpiperazin-1-yl)phenyl]-1,5-dihydro-6H-pyrazolo[4,3-c]pyridin-6-one], the pKi is not below 7.00.

The compound `CN1CCN(c2ccc(-c3n[nH]c4cc(=O)n(CC5CCCCC5)cc34)cc2)CC1` [Example 12, 5-(Cyclohexylmethyl)-3-[4-(4-methylpiperazin-1-yl)phenyl]-1,5-dihydro-6H-pyrazolo[4,3-c]pyridin-6-one] gave a pKi of 6.30 to 7.00.

For the compound `COc1cccc(F)c1-n1cc2c(-c3ccc(N4CCN(C)CC4)cc3)n[nH]c2cc1=O` [Example 5, 5-(2-Fluoro-6-methoxyphenyl)-3-[4-(4-methylpiperazin-1-yl)phenyl]-1,5-dihydro-6H-pyrazolo[4,3-c]pyridin-6-one], the pKi was not below 7.00.
